In US9578878B2, “Antimicrobial efficacy of an oregano oil and caprylic acid blend” (Kemin Industries, Inc., priority 2014, dated 2017):

Columns and labels:
Type in all cases: cell-based
[1] = tested on: Escherichia coli (ATCC #8739); assay: Microtiter assay, MIC to inhibit 90% growth; details: 24 hours, n = 3
Procedure: (§1) For assays to find minimum inhibitory concentrations, all treatments were diluted in 10% DMSO and 0.5% Tween 80 to stabilize the samples.
(§2) Microorganisms Escherichia coli (ATCC #8739), Streptococcus sanguinis (ATCC #BAA-1455), Salmonella enteria subsp. enterica (ex Kauffmann and Edwards) Le Minor and Popoff serovar Typhimurium (ATCC #14028), Staphylococcus aureus (ATCC #6538), Pseudomonas aeruginosa (ATCC #9027), and Candida albicans (ATCC #10231) were obtained from a −80° C. internal stock culture. Aspergillus brasiliensis (ATCC #16404) was obtained from an internal stock solution culture stored at 4° C. E. coli, S. enterica S. aureus, and P. aeruginosa were grown in tryptic soy broth (TSB) and incubated at 37° C. for 24 h. S. sanguinis was grown in brain heart infusion broth (BHI). A. brasiliensis was plated on Sabourand dextrose agar (SDA) and incubated at 25° C. for 5-7 days. C. albicans was grown in Sabourand dextrose broth (SDB) and incubated at 25° C. for 48 h.
(§3) A. brasiliensis was harvested by adding 18 mL sterile saline to the plate and agitating the mold from the agar with a sterile inoculating loop. The inoculum was collected upon agitation. All suspended microbes were diluted with the same type of broth media used to grow each organism until an inoculum in the range of 10^6 CFU/mL was achieved. The inoculum concentration was determined by plate count method. Each strain was identified by plating on the appropriate growth media, E. coli, S. aureus, and P. aeruginosa on tryptic soy agar (Bacto, BD Sciences, Manassas, Va.) and C. albicans and A. brasiliensis on Sabrouand dextrose agar, to ensure there was no contamination of the inoculum.
(§4) Microtiter Assay. A microtiter assay was completed E. coli, S. aureus, P. aeruginosa, S. enteria, S. sanguinis, and C. albicans. Briefly, 10^6 cfu/ml preparations of each organism were made and enumerated using a Petroff-Hausser counting chamber. A 100 μl aliquot of the inoculums was dispensed into microtiter plate wells and a 100 μl aliquot of treatment was dispensed into the same wells. Two separate set of wells were prepared as positive and negative controls, with the positive wells containing 100 μl test organism in growth media and 100 μl sterile phosphate buffer and with the negative control wells containing 100 μl of the same growth media and 100 μl sterile phosphate buffer. The plates were incubated overnight at the appropriate temperature for each organism. A plate reader was used to track the kinetic growth curve using 405 nm and […]. The last time point at 24 hours was averaged and used to determine MIC90. Each treatment was conducted in triplicate wells.

[2] = tested on: Pseudomonas aeruginosa (ATCC #9027); assay: Microtiter assay, MIC to inhibit 90% growth; details: 24 hours, n = 3
Procedure: as §1, §2, §3, §4

[3] = tested on: Staphylococcus aureus (ATCC #6538); assay: Microtiter assay, MIC to inhibit 90% growth; details: 24 hours, n = 3
Procedure: as §1, §2, §3, §4

[4] = tested on: Aspergillus brasiliensis (ATCC #16404); assay: Preservative efficacy test (USP 51) in cold process cream, Example 1; details: cream with caprylic acid, by the end of the study (28 days)
Procedure: (§5) Creams were prepared aseptically by spraying 70% isopropyl alcohol on all surfaces and labware. Carbomer 940 and coco caprylate were obtained from BPI Labs, Inc. (Evanston, Wyo.). Safflower and olive oils were purchased from Jedwards International, Inc. (Quincy, Mass.). The cream formulations were as follows: […]
(§6) Preservative studies were completed at different times for caprylic acid and 10% carvacrol in caprylic acid. The negative and positive controls were designated at A, B for the caprylic acid study and 1, 2 for the addition of carvacrol in Table 1. The change in positive control ingredients was due to a shift in the preservative used for regular KPC formulations.
(§7) DI water was added to a pre-weighed 250 mL beaker and mixed at 800 rpm using an overhead mixer (Eurostar power-b IKA-WERKE, Wilmington, N.C.) with a 3 blade […] impeller. Carbomer 940 was slowly added to the center of the mixing water. The mixture was hydrated for 30 minutes while covered with aluminum foil. Glycerin quickly followed by Lysofix were slowly added to the solution. After 2 minutes, safflower oil, olive oil, and coco caprylate were slowly added to the mixture at 1000 rpm. The solution was mixed for 30 minutes while covered with aluminum foil. Next the pH was measured and adjusted to 5.5 with a 33.3% sodium hydroxide solution. The mixing speed was increased to 1400 rpm. From time to time, it was necessary to scrape the sides of the beaker with a spatula to ensure that the cream became homogenized. When the cream appeared homogenized, the amount of preservative or treatment was added. After 2 minutes, the cream was weighed and water added to reach a mass balance.
(§8) Microorganisms Escherichia coli (ATCC #8739), Staphylococcus aureus (ATCC #6538), Pseudomonas aeruginosa (ATCC #9027), and Candida albicans (ATCC #10231) were obtained from a −80° C. internal stock culture. Aspergillus brasiliensis (ATCC #16404) was obtained from an internal stock solution cultured stored at 4° C. E. coli, S. aureus, and P. aeruginosa were grown in tryptic soy broth (Bacto, BD Sciences, Manassas, Va.) and incubated at 37° C. for 24 h. A. brasiliensis was plated on Sabourand dextrose agar (Bacto, BD Sciences, Manassas, Va.) and incubated at 25° C. for 5-7 days. C. albicans was grown in Sabourand dextrose broth (Bacto, BD Sciences, Manassas, Va.) and incubated at 25° C. for 48 h.
(§9) Pathogens in broth were harvested by centrifugation (2400 rpm, 20 minutes) and suspended in sterile saline. A. brasiliensis was harvested by adding 18 mL sterile saline to the plate and agitating the mold from the agar with a sterile inoculating loop. The inoculum was collected upon agitation. All suspended microbes were diluted with sterile saline until an inoculum in the range of 10^8 CFU/mL was achieved. The inoculum concentration was determined by plate count method. Each strain was identified by plating on the appropriate growth media, E. coli, S. aureus, and P. aeruginosa on tryptic soy agar (Bacto, BD Sciences, Manassas, Va.) and C. albicans and A. brasiliensis on Sabrouand dextrose agar, to ensure there was no contamination of the inoculum.
(§10) Creams were plated according to the SOP^1 to ensure they were sterile. Each prepared cream was inoculated with 0.1 mL of inoculum per 10 g of sample to reach the targeted inoculated concentration of 6-log cfu/g. Samples were vortexed for 2 minutes. The inoculated creams were incubated at 25° C. […]

[5] = tested on: Candida albicans (ATCC #10231); assay: as above; details: cream with 0.5% or 1.0% caprylic acid, after 2 days
Procedure: as §5, §6, §7, §8, §9, §10

[6] = tested on: Escherichia coli (ATCC #8739); assay: as above; details: cream with 0.5% or 1.0% caprylic acid, after 3 days
Procedure: as §5, §6, §7, §8, §9, §10

[7] = tested on: Pseudomonas aeruginosa (ATCC #9027); assay: as above; details: cream with 0.5% or 1.0% caprylic acid, after 2 days
Procedure: as §5, §6, §7, §8, §9, §10

[8] = tested on: Staphylococcus aureus (ATCC #6538); assay: as above; details: cream with 0.5% or 1.0% caprylic acid, after 2 days
Procedure: as §5, §6, §7, §8, §9, §10

## CCCCCCCC(=O)O [Caprylic Acid, octanoic acid]
[1]
  Minimum Inhibitory Concentration (MIC) to inhibit 90% growth, E. coli: 0.27%
[2]
  Minimum Inhibitory Concentration (MIC) to inhibit 90% growth, P. aeruginosa: 0.90%
[3]
  Minimum Inhibitory Concentration (MIC) to inhibit 90% growth, S. aureus: 0.09%
[4]
  Log reduction of A. brasiliensis: 2 log
[5]
  Log reduction of C. albicans: 5 log
[6]
  Log reduction of E. coli: 5 log
[7]
  Log reduction of P. aeruginosa: 5 log
[8]
  Log reduction of S. aureus: 5 log
